# In patent US8916711B2, “Imidazothiazole-chalcone derivatives as potential anticancer agents and process for the preparation thereof” (Council of Scientific and Industrial Research, priority 2009, dated 2014):
# Read-outs that look alike come from different tables or passages of the source.
# Legend:
# Assay type in all cases: cell-based
# CCRF-CEM = assay: NCI in vitro cytotoxicity (SRB, 48 h), Leukemia panel; conditions: Homo sapiens, 48 h exposure
# RPMI-8226 = assay: as above; conditions: Homo sapiens; RPMI-8226, Leukemia; 48 h exposure
# A549/ATCC = assay: NCI in vitro cytotoxicity (SRB, 48 h), Non-small cell lung panel; conditions: Homo sapiens, 48 h exposure
# HOP-62 = assay: as above; conditions: Homo sapiens; HOP-62, Non-small cell lung; 48 h exposure
# NCI-H23 = assay: as above; conditions: Homo sapiens, 48 h exposure
# NCI-H460 = assay: as above; conditions: Homo sapiens, 48 h exposure
# COLO 205 = assay: NCI in vitro cytotoxicity (SRB, 48 h), Colon panel; conditions: Homo sapiens; COLO 205, Colon; 48 h exposure
# HCC-2998 = assay: NCI in vitro cytotoxicity (SRB, 48 h), Colon panel; conditions: Homo sapiens; HCC-2998, Colon; 48 h exposure
# HCT-116 = assay: NCI in vitro cytotoxicity (SRB, 48 h), Colon panel; conditions: Homo sapiens; for GI50: HCT-116, Colon, 48 h exposure
# HT29 = assay: NCI in vitro cytotoxicity (SRB, 48 h), Colon panel; conditions: Homo sapiens, HT-29, 48 h exposure
# SW-620 = assay: NCI in vitro cytotoxicity (SRB, 48 h), Colon panel; conditions: Homo sapiens; SW-620, Colon; 48 h exposure
# SF-268 = assay: NCI in vitro cytotoxicity (SRB, 48 h), CNS panel; conditions: Homo sapiens; SF-268, CNS; 48 h exposure
# SF-295 = assay: NCI in vitro cytotoxicity (SRB, 48 h), CNS panel; conditions: Homo sapiens; SF-295, CNS; 48 h exposure
# SNB-75 = assay: NCI in vitro cytotoxicity (SRB, 48 h), CNS panel; conditions: Homo sapiens; SNB-75, CNS; 48 h exposure
# IGROV1 = assay: NCI in vitro cytotoxicity (SRB, 48 h), Ovarian panel; conditions: Homo sapiens, IGROV-1
# OVCAR-3 = assay: as above; conditions: Homo sapiens; OVCAR-3, Ovarian; 48 h exposure
# OVCAR-4 = assay: as above; conditions: Homo sapiens; OVCAR-4, Ovarian; 48 h exposure
# OVCAR-8 = assay: as above; conditions: Homo sapiens; OVCAR-8, Ovarian; 48 h exposure
# ACHN = assay: NCI in vitro cytotoxicity (SRB, 48 h), Renal panel; conditions: Homo sapiens, 48 h exposure
# PC-3 = assay: NCI in vitro cytotoxicity (SRB, 48 h), Prostate panel; conditions: Homo sapiens; PC-3, Prostate; 48 h exposure
# DU-145 = assay: as above; conditions: Homo sapiens; DU-145, Prostate; 48 h exposure
# MCF7 = assay: NCI in vitro cytotoxicity (SRB, 48 h), Breast panel; conditions: Homo sapiens; for GI50: MCF7, Breast, 48 h exposure
# Protocol: (§1) The imidazothiazole-chalcone hybrids 7a, 7e, 7f, 8f and 19e have been tested against sixty human tumour cell lines derived from nine cancer types (leukemia, non-small cell lung cancer, colon cancer, CNS cancer, melanoma, ovarian cancer, renal cancer, prostate cancer and breast cancer) as per NCI protocol. For each compound, dose response curves for individual cell lines have been measured at a minimum of five concentrations at 10 fold dilutions. A protocol of 48 h continuous drug exposure has been used, and a sulforhodamine B (SRB) protein assay was used to estimate cell viability or growth. The concentration for 50% cell growth inhibition (GI50), total cell growth inhibition (TGI, 0% growth) and 50% cell death (LC50, […]) compared with the control has been calculated (Table-1).
# MDA-MB-231/ATCC = assay: as above; conditions: Homo sapiens; for GI50: Breast, 48 h exposure
# Protocol: as §1
# HS 578T = assay: as above; conditions: Homo sapiens, 48 h exposure
# T-47D = assay: as above; conditions: Homo sapiens, T47D, 48 h exposure
# LOX IMVI = assay: NCI in vitro cytotoxicity (SRB, 48 h), Melanoma panel; conditions: Homo sapiens, 48 h exposure
# M14 = assay: as above; conditions: Homo sapiens, 48 h exposure
# MDAMB-435 = assay: as above; conditions: Homo sapiens, MDA-MB-435; MDAMB-435, Melanoma; 48 h exposure
# SK-MEL-2 = assay: as above; conditions: Homo sapiens; SK-MEL-2, Melanoma; 48 h exposure
# SK-MEL-28 = assay: as above; conditions: Homo sapiens; SK-MEL-28, Melanoma; 48 h exposure
# UACC-25 = assay: as above; conditions: Homo sapiens; UACC-25, Melanoma; 48 h exposure
# Colon cancer cell lines = assay: NCI in vitro cytotoxicity, whole panel; conditions: Homo sapiens; for CC50: read-out: Log10 LC50 (converted)
# CNS cancer cell lines = assay: NCI in vitro cytotoxicity, whole panel; conditions: Homo sapiens; for CC50: read-out: Log10 LC50 (converted)
# [1] = system: Ovarian cancer cell lines; assay: NCI in vitro cytotoxicity, whole panel; conditions: Homo sapiens; for CC50: read-out: Log10 LC50 (converted)
# A498 = assay: NCI in vitro cytotoxicity (SRB, 48 h), Renal panel; conditions: Homo sapiens, 48 h exposure
# [2] = Colon, average of six to eight cell lines, read-out: Log10 GI50 (converted)
# [3] = Colon, average of six to eight cell lines
# [4] = exposure period of at least 48 hrs, read-out: GI50, range over colon cell lines
# [5] = CNS cell, exposure period of at least 48 hrs, read-out: GI50, range over CNS cell lines
# [6] = CNS, average of six to eight cell lines, read-out: Log10 GI50 (converted)
# [7] = CNS, average of six to eight cell lines
# [8] = Ovarian, average of six to eight cell lines, read-out: Log10 GI50 (converted)
# [9] = Ovarian, average of six to eight cell lines
# [10] = exposure period of at least 48 hrs, read-out: GI50, range over ovarian cell lines
smiles,measurement,setting,value
"COc1cc(C(=O)/C=C/c2c(-c3ccc(F)cc3)nc3sc(C)cn23)cc(OC)c1OC [Compound 19e, (E)-3-(6-(4-fluorophenyl)-2-methylimidazo[2,1-b]thiazol-5-yl)-1-(3,4,5-trimethoxyphenyl)prop-2-en-1-one]",GI50,CCRF-CEM,7.19 µM
same,GI50,RPMI-8226,2.32 µM
same,GI50,A549/ATCC,9.34 µM
same,GI50,HOP-62,85.1 µM
same,GI50,NCI-H23,2.24 µM
same,GI50,NCI-H460,3.87 µM
same,GI50,COLO 205,4.94 µM
same,GI50,HCC-2998,9.93 µM
same,GI50,HCT-116,2.92 µM
same,GI50,HT29,6.96 µM
same,GI50,SW-620,5.34 µM
same,GI50,SF-268,15.2 µM
same,GI50,SF-295,2.33 µM
same,GI50,SNB-75,50.1 µM
same,GI50,"IGROV1; IGROV1, Ovarian, 48 h exposure",8.71 µM
same,GI50,OVCAR-3,3.66 µM
same,GI50,OVCAR-4,2.28 µM
same,GI50,OVCAR-8,4.94 µM
same,GI50,ACHN,5.83 µM
same,GI50,PC-3,2.41 µM
same,GI50,DU-145,7.52 µM
same,GI50,MCF7,1.81 µM
same,GI50,MDA-MB-231/ATCC,5.38 µM
same,GI50,HS 578T,8.29 µM
same,GI50,T-47D,2.93 µM
same,GI50,LOX IMVI,2.5 µM
same,GI50,M14,5.12 µM
same,GI50,MDAMB-435,1.75 µM
same,GI50,SK-MEL-2,5.75 µM
same,GI50,SK-MEL-28,7.07 µM
same,GI50,UACC-25,4.75 µM
same,GI50,Colon cancer cell lines; [2],5.01 µM
same,CC50,Colon cancer cell lines; [3],≥ 100 µM
same,GI50,Colon cancer cell lines; [4],2.92 to 9.93 µM
same,GI50,CNS cancer cell lines; [5],2.33 to 87.8 µM
same,GI50,CNS cancer cell lines; [6],12.6 µM
same,CC50,CNS cancer cell lines; [7],≥ 100 µM
same,GI50,[1]; [8],6.76 µM
same,CC50,[1]; [9],100 µM
same,GI50,[1]; [10],≥ 2.28 µM
"COc1cc(C(=O)/C=C/c2c(-c3ccc(F)cc3)nc3sccn23)cc(OC)c1OC [Compound 7e, (E)-3-(6-(4-fluorophenyl)imidazo[2,1-b]thiazol-5-yl)-1-(3,4,5-trimethoxyphenyl)prop-2-en-1-one]",GI50,CCRF-CEM,2.23 µM
same,GI50,A549/ATCC,2.09 µM
same,GI50,HOP-62,2.25 µM
same,GI50,NCI-H23,2.49 µM
same,GI50,NCI-H460,2.3 µM
same,GI50,COLO 205,2.79 µM
same,GI50,HCC-2998,2.11 µM
same,IC50,"HCT-116; HCT-116, HCT116, Table 4, read-out: Comparative efficacy",2.33 µM
same,GI50,HCT-116,2.33 µM
same,GI50,HT29,2.84 µM
same,GI50,SW-620,2.99 µM
same,GI50,SF-268,2.52 µM
same,GI50,SF-295,1.8 µM
same,GI50,SNB-75,2.46 µM
same,GI50,"IGROV1; IGROV1, Ovarian, 48 h exposure",1.04 µM
same,GI50,"IGROV1; IGROV1, ovarian",1.04 µM
same,IC50,"IGROV1; IGROV1, Table 4, read-out: Comparative efficacy",1.04 µM
same,GI50,OVCAR-3,2.16 µM
same,GI50,OVCAR-4,3.78 µM
same,GI50,OVCAR-8,1.98 µM
same,GI50,A498,2.73 µM
same,GI50,ACHN,2.96 µM
same,GI50,PC-3,3.43 µM
same,GI50,DU-145,2.45 µM
same,IC50,"MCF7; MCF7, MCF-7, Table 4, read-out: Comparative efficacy",2.24 µM
same,GI50,MCF7,2.24 µM
same,GI50,MDA-MB-231/ATCC,2.49 µM
same,IC50,"MDA-MB-231/ATCC; Table 4, read-out: Comparative efficacy",2.49 µM
same,GI50,HS 578T,2.05 µM
same,GI50,T-47D,3.25 µM
same,GI50,LOX IMVI,1.85 µM
same,GI50,M14,2.75 µM
same,GI50,MDAMB-435,1.82 µM
same,GI50,SK-MEL-2,2.52 µM
same,GI50,SK-MEL-28,4.19 µM
same,GI50,Colon cancer cell lines; [2],2.63 µM
same,CC50,Colon cancer cell lines; [3],38 µM
same,GI50,Colon cancer cell lines; [4],2.11 to 2.99 µM
same,GI50,CNS cancer cell lines; [5],1.74 to 3.73 µM
same,GI50,CNS cancer cell lines; [6],2.34 µM
same,CC50,CNS cancer cell lines; [7],52.5 µM
same,GI50,[1]; [8],2.19 µM
same,CC50,[1]; [9],52.5 µM
same,GI50,[1]; [10],1.04 to 3.78 µM
